In ChEMBL document CHEMBL1137339, “Improved therapeutic efficacy of doxorubicin through conjugation with a novel peptide drug delivery technology (Vectocell)” (J Med Chem, 2006):
pIC50: −log10 of the molar value. Starred links: 1 amine or outer side, 2 acyl side, 3 side chain; linkers in the order of their positions; H or OH if unused. Non-standard residues stand in square brackets, D forms with d. Residues, ends and D or L forms follow the SMILES beside them. ξ: configuration not given here. *: point of attachment. X1 = COc1cccc2c1C(=O)c1c(O)c3c(c(O)c1C2=O)C[C@@](O)(C(=O)COC(=O)CCCN1C(=O)CC(*)C1=O)C[C@@H]3O[C@H]1C[C@H](N)[C@H](O)[C@H](C)O1; X4 = COc1cccc2c1C(=O)c1c(O)c3c(c(O)c1C2=O)C[C@@](O)(C(=O)CO)C[C@@H]3O[C@H]1C[C@H](NC(=O)CCCN2C(=O)CC(*)C2=O)[C@H](O)[C@H](C)O1; X2 = COc1cccc2c1C(=O)c1c(O)c3c(c(O)c1C2=O)C[C@@](O)(C(=O)C*)CC3O[C@H]1C[C@H](N)[C@H](O)[C@H](C)O1; X3 = COc1cccc2c1Cc1cc3c(cc1C2)C[C@@](O)(C(=O)CSCN*)C[C@@H]3O[C@H]1C[C@H](N)[C@H](O)[C@H](C)O1; CO = O=C([*:1])[*:2]; ξC = NC(CS)C(=O)O

Tests used:
[1] = tested on: MCF7; assay: Cytotoxicity against doxorubicin-sensitive MCF7/6 cell line by WST1 assay; format: functional, cell-based; conditions: Homo sapiens
[2] = tested on: NCI/ADR-RES; assay: Cytotoxicity against doxorubicin-resistant MCF7/Adr cell line by WST1 assay; format: functional, cell-based; conditions: Homo sapiens
[3] = tested on: HCT-116; assay: Cytotoxicity against HCT116 cell line xenografted in NMRI nu/nu mouse at 15 umol/kg relative to control; format: functional, Homo sapiens
[4] = tested on: HCT-116; assay: Cytotoxicity against doxorubicin-sensitive HCT116 cell line by WST1 assay; format: functional, cell-based; conditions: Homo sapiens
[5] = tested on: HCT-15; assay: Cytotoxicity against HCT15 cell line by WST1 assay; format: functional, cell-based; conditions: Homo sapiens
[6] = tested on: NCI/ADR-RES; assay: Cytotoxicity against doxorubicin-resistant MCF7/Adr cell line in presence of verapamil by WST1 assay; format: functional, cell-based; conditions: Homo sapiens
[7] = tested on: MES-SA/Dx5; assay: Cytotoxicity against doxorubicin-resistant MES-SA/dx5 cell line in presence of verapamil by WST1 assay; format: functional, cell-based; conditions: Homo sapiens
[8] = tested on: HCT-15; assay: Cytotoxicity against doxorubicin-resistant HCT15 cell line in presence of verapamil by WST1 assay; format: functional, cell-based; conditions: Homo sapiens
[9] = tested on: MES-SA/Dx5; assay: Cytotoxicity against MES-SA/dx5 cell line by WST1 assay; format: functional, cell-based; conditions: Homo sapiens
[10] = tested on: HCT-116; assay: Cytotoxicity against doxorubicin-sensitive HCT116 cell line in presence of verapamil by WST1 assay; format: functional, cell-based; conditions: Homo sapiens
[11] = tested on: MDA-MB-231; assay: Cytotoxicity against MDA-MB-231 cell line xenografted in NMRI nu/nu mouse at 10 umol/kg relative to control; format: functional, Homo sapiens
[12] = tested on: MDA-MB-231; assay: Cytotoxicity against MDA-MB-231 cell line xenografted in NMRI nu/nu mouse at 6 umol/kg relative to control; format: functional, Homo sapiens
[13] = tested on: MDA-MB-231; assay: Cytotoxicity against MDA-MB-231 cell line xenografted in NMRI nu/nu mouse at 8 umol/kg relative to control; format: functional, Homo sapiens
[14] = tested on: HCT-116; assay: Cytotoxicity against HCT116 cell line xenografted in NMRI nu/nu mouse at 10 umol/kg relative to control; format: functional, Homo sapiens
[15] = tested on: HCT-116; assay: Cytotoxicity against HCT116 cell line xenografted in NMRI nu/nu mouse at 6.5 umol/kg relative to control; format: functional, Homo sapiens

Compound	pIC50 [1]	pIC50 [2]	Activity [3] [%]	pIC50 [4]	other results
COc1cccc2c1C(=O)c1c(O)c3c(c(O)c1C2=O)C[C@@](O)(C(=O)COC(=O)CCCN1C(=O)CC(SCC(N)C(=O)NCC(=O)N[C@@H](CCCCN)C(=O)N[C@@H](CCCN=C(N)N)C(=O)N[C@@H](CCCCN)C(=O)N[C@@H](CCCCN)C(=O)N[C@@H](CCCCN)C(=O)NCC(=O)N[C@@H](CCCCN)C(=O)N[C@@H](CC(C)C)C(=O)NCC(=O)N[C@@H](CCCCN)C(=O)N[C@@H](CCCCN)C(=O)N[C@@H](CCCN=C(N)N)C(=O)N2CCC[C@H]2C(=O)N[C@@H](CCCN=C(N)N)C(=O)N[C@@H](CO)C(=O)N[C@@H](CCCN=C(N)N)C(=O)N[C@@H](CS)C(=O)O)C1=O)C[C@@H]3O[C@H]1C[C@H](N)[C@H](O)[C@H](C)O1.O=C(O)C(F)(F)F (stereo partly specified) (H-[ξC](X1)GKRKKKGKLGKKRPRSRC-OH)	5.00	< 3.00	34.1	5.30	–
COc1cccc2c1C(=O)c1c(O)c3c(c(O)c1C2=O)C[C@@](O)(C(=O)COC(=O)CCCN1C(=O)CC(SCC(N)C(=O)N[C@@H](CO)C(=O)N[C@@H](CCCN=C(N)N)C(=O)N[C@@H](CCCN=C(N)N)C(=O)N[C@@H](C)C(=O)N[C@@H](CCCN=C(N)N)C(=O)N[C@@H](CCCN=C(N)N)C(=O)N[C@@H](CO)C(=O)N2CCC[C@H]2C(=O)N[C@@H](CCCN=C(N)N)C(=O)N[C@@H](Cc2c[nH]cn2)C(=O)N[C@@H](CC(C)C)C(=O)NCC(=O)N[C@@H](CO)C(=O)NCC(=O)N[C@@H](CS)C(=O)O)C1=O)C[C@@H]3O[C@H]1C[C@H](N)[C@H](O)[C@H](C)O1.O=C(O)C(F)(F)F (stereo partly specified) (H-[ξC](X1)SRRARRSPRHLGSGC-OH)	5.05	3.27	39	5.70	–
COc1cccc2c1C(=O)c1c(O)c3c(c(O)c1C2=O)C[C@@](O)(C(=O)CO)C[C@@H]3O[C@H]1C[C@H](NC(=O)CCCN2C(=O)CC(SC[C@H](N)C(=O)N[C@H](C(=O)N[C@@H](CCCCN)C(=O)N[C@@H](CCCN=C(N)N)C(=O)NCC(=O)N[C@@H](CC(C)C)C(=O)N[C@@H](CCCCN)C(=O)N[C@@H](CC(C)C)C(=O)N[C@@H](CCCN=C(N)N)C(=O)N[C@@H](Cc3c[nH]cn3)C(=O)N[C@H](C(=O)N[C@@H](CCCN=C(N)N)C(=O)N3CCC[C@H]3C(=O)N[C@@H](CCCN=C(N)N)C(=O)N[C@H](C(=O)N[C@H](C(=O)N[C@@H](CCCN=C(N)N)C(=O)N[C@@H](CCSC)C(=O)N[C@@H](CC(=O)O)C(=O)N[C@H](C(=O)O)C(C)C)[C@@H](C)O)C(C)C)C(C)C)C(C)C)C2=O)[C@H](O)[C@H](C)O1.O=C(O)C(F)(F)F (stereo partly specified) (H-C(X4)VKRGLKLRHVRPRVTRMDV-OH)	–	–	79.7	–	–
COc1cccc2c1C(=O)c1c(O)c3c(c(O)c1C2=O)C[C@@](O)(C(=O)COC(=O)CCCN1C(=O)CC(SC[C@H](N)C(=O)N[C@H](C(=O)N[C@@H](CCCCN)C(=O)N[C@@H](CCCN=C(N)N)C(=O)NCC(=O)N[C@@H](CC(C)C)C(=O)N[C@@H](CCCCN)C(=O)N[C@@H](CC(C)C)C(=O)N[C@@H](CCCN=C(N)N)C(=O)N[C@@H](Cc2c[nH]cn2)C(=O)N[C@H](C(=O)N[C@@H](CCCN=C(N)N)C(=O)N2CCC[C@H]2C(=O)N[C@@H](CCCN=C(N)N)C(=O)N[C@H](C(=O)N[C@H](C(=O)N[C@@H](CCCN=C(N)N)C(=O)N[C@@H](CCSC)C(=O)N[C@@H](CC(=O)O)C(=O)N[C@H](C(=O)O)C(C)C)[C@@H](C)O)C(C)C)C(C)C)C(C)C)C1=O)C[C@@H]3O[C@H]1C[C@H](N)[C@H](O)[C@H](C)O1 (stereo partly specified) (H-C(X1)VKRGLKLRHVRPRVTRMDV-OH)	4.54	3.88	–	5.22	pIC50 [5]: 4.30; pIC50 [6]: 4.28; pIC50 [7]: 4.66; pIC50 [8]: 4.96; pIC50 [9]: 4.09; pIC50 [10]: 5.40
COc1cccc2c1C(=O)c1c(O)c3c(c(O)c1C2=O)C[C@@](O)(C(=O)CO)C[C@@H]3O[C@H]1C[C@H](NC(=O)CCCN2C(=O)CC(SCC(N)C(=O)N[C@@H](CO)C(=O)N[C@@H](CCCN=C(N)N)C(=O)N[C@@H](CCCN=C(N)N)C(=O)N[C@@H](C)C(=O)N[C@@H](CCCN=C(N)N)C(=O)N[C@@H](CCCN=C(N)N)C(=O)N[C@@H](CO)C(=O)N3CCC[C@H]3C(=O)N[C@@H](CCCN=C(N)N)C(=O)N[C@@H](Cc3c[nH]cn3)C(=O)N[C@@H](CC(C)C)C(=O)NCC(=O)N[C@@H](CO)C(=O)NCC(=O)N[C@@H](CS)C(=O)O)C2=O)[C@H](O)[C@H](C)O1 (stereo partly specified) (H-[ξC](X4)SRRARRSPRHLGSGC-OH)	3.94	3.20	–	3.70	–
COc1cccc2c1C(=O)c1c(O)c3c(c(O)c1C2=O)C[C@@](O)(C(=O)COC(=O)CCCN1C(=O)CC(SC[C@H](N)C(=O)N[C@H](C(=O)N[C@@H](CCCCN)C(=O)N[C@@H](CCCN=C(N)N)C(=O)NCC(=O)N[C@@H](CC(C)C)C(=O)N[C@@H](CCCCN)C(=O)N[C@@H](CC(C)C)C(=O)N[C@@H](CCCN=C(N)N)C(=O)N[C@@H](Cc2c[nH]cn2)C(=O)N[C@H](C(=O)N[C@@H](CCCN=C(N)N)C(=O)N2CCC[C@H]2C(=O)N[C@@H](CCCN=C(N)N)C(=O)N[C@H](C(=O)N[C@H](C(=O)N[C@@H](CCCN=C(N)N)C(=O)N[C@@H](CCSC)C(=O)N[C@@H](CC(=O)O)C(=O)N[C@H](C(=O)O)C(C)C)[C@@H](C)O)C(C)C)C(C)C)C(C)C)C1=O)C[C@@H]3O[C@H]1C[C@H](N)[C@H](O)[C@H](C)O1.O=C(O)C(F)(F)F (stereo partly specified) (H-C(X1)VKRGLKLRHVRPRVTRMDV-OH)	–	–	29.5	–	Activity [11]: 16.4%; Activity [12]: 43.4%; Activity [13]: 27.6%
COc1cccc2c1Cc1cc3c(cc1C2)C[C@@](O)(C(=O)CSCNC(=O)NCC(=O)N[C@@H](CCCCN)C(=O)N[C@@H](CCCN=C(N)N)C(=O)N[C@@H](CCCCN)C(=O)N[C@@H](CCCCN)C(=O)N[C@@H](CCCCN)C(=O)NCC(=O)N[C@@H](CCCCN)C(=O)N[C@@H](CC(C)C)C(=O)NCC(=O)N[C@@H](CCCCN)C(=O)N[C@@H](CCCCN)C(=O)N[C@@H](CCCN=C(N)N)C(=O)N1CCC[C@H]1C(=O)N[C@@H](CCCN=C(N)N)C(=O)N[C@@H](CO)C(=O)N[C@@H](CCCN=C(N)N)C(=O)N[C@@H](CS)C(=O)O)C[C@@H]3O[C@H]1C[C@H](N)[C@H](O)[C@H](C)O1.O=C(O)C(F)(F)F ({X3-CO}-GKRKKKGKLGKKRPRSRC-OH)	4.77	3.06	–	4.52	Activity [14]: 86.2%
COc1cccc2c1C(=O)c1c(O)c3c(c(O)c1C2=O)C[C@@](O)(C(=O)CO)C[C@@H]3O[C@H]1C[C@H](N)[C@H](O)[C@H](C)O1.O=C(O)C(F)(F)F [DOXORUBICIN TRIFLUOROACETATE]	–	< 3.00	–	5.52	pIC50 [5]: 3.55; pIC50 [6]: 4.52; pIC50 [7]: 4.68; Activity [15]: 49.6%; pIC50 [8]: 4.70; pIC50 [9]: 3.22; pIC50 [10]: 5.70
COc1cccc2c1C(=O)c1c(O)c3c(c(O)c1C2=O)C[C@@](O)(C(=O)CO)C[C@@H]3O[C@H]1C[C@H](NC(=O)CCCN2C(=O)CC(SC[C@H](N)C(=O)N[C@H](C(=O)N[C@@H](CCCCN)C(=O)N[C@@H](CCCN=C(N)N)C(=O)NCC(=O)N[C@@H](CC(C)C)C(=O)N[C@@H](CCCCN)C(=O)N[C@@H](CC(C)C)C(=O)N[C@@H](CCCN=C(N)N)C(=O)N[C@@H](Cc3c[nH]cn3)C(=O)N[C@H](C(=O)N[C@@H](CCCN=C(N)N)C(=O)N3CCC[C@H]3C(=O)N[C@@H](CCCN=C(N)N)C(=O)N[C@H](C(=O)N[C@H](C(=O)N[C@@H](CCCN=C(N)N)C(=O)N[C@@H](CCSC)C(=O)N[C@@H](CC(=O)O)C(=O)N[C@H](C(=O)O)C(C)C)[C@@H](C)O)C(C)C)C(C)C)C(C)C)C2=O)[C@H](O)[C@H](C)O1 (stereo partly specified) (H-C(X4)VKRGLKLRHVRPRVTRMDV-OH)	3.97	3.30	–	–	–
COc1cccc2c1C(=O)c1c(O)c3c(c(O)c1C2=O)C[C@@](O)(C(=O)CSCC(N)C(=O)N[C@@H](CO)C(=O)N[C@@H](CCCN=C(N)N)C(=O)N[C@@H](CCCN=C(N)N)C(=O)N[C@@H](C)C(=O)N[C@@H](CCCN=C(N)N)C(=O)N[C@@H](CCCN=C(N)N)C(=O)N[C@@H](CO)C(=O)N1CCC[C@H]1C(=O)N[C@@H](CCCN=C(N)N)C(=O)N[C@@H](Cc1c[nH]cn1)C(=O)N[C@@H](CC(C)C)C(=O)NCC(=O)N[C@@H](CO)C(=O)NCC(=O)N[C@@H](CS)C(=O)O)CC3O[C@H]1C[C@H](N)[C@H](O)[C@H](C)O1.O=C(O)C(F)(F)F (stereo partly specified) (H-[ξC](X2)SRRARRSPRHLGSGC-OH)	4.43	3.92	–	3.82	Activity [14]: 55.8%
H-CVKRGLKLRHVRPRVTRMDV-OH	–	< 3.00	–	< 3.00	–
